14 molecules from PubChem BioAssay (NCI) can be followed below.

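All cell lines were grown in 96-well plates and treated with compound for 48 hours. TGI is the concentration that stops growth completely.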

Among the test systems are SF-295 CNS; PC-3 prostate; MDA-N; HL-60(TB) leukemia; MCF7 breast; MDA-MB-231 breast; MALME-3M melanoma; NCI-H23 lung; NCI-H522 lung; SNB-19 CNS.
What all share (experiment): inhibition of tumour cell growth, NCI panel, 48 h

On to `CC(C)(C)N/N=C(\C(=O)NC1=C(Cl)C(=O)c2ccccc2C1=O)C1C=CCS1(=O)=O` (configuration not stated), for which the TGI is 25.1 µM in the assay with SF-295 CNS; 62.2 µM in the assay on PC-3 prostate; 6.33 µM in the assay with MDA-N; greater than 100 µM in the assay on HL-60(TB) leukemia; 29 µM in the assay with MCF7 breast; 32.4 µM in the assay on MDA-MB-231 breast. Further, the TGI in the assay with MALME-3M melanoma was 6.44 µM; in the assay with NCI-H23 lung, 24.2 µM; with NCI-H522 lung, 25.5 µM; in the assay with SNB-19 CNS it was greater than 100 µM.

As for `COC(=O)c1cc(OC)c(OC)c(OC)c1-c1cc2c(cc1C=O)OCO2`, the TGI in the assay on SF-295 CNS, in the assay on PC-3 prostate, with MDA-N, with HL-60(TB) leukemia, in the assay on MCF7 breast and in the assay with MDA-MB-231 breast was greater than 10 µM in each case. Moreover, the TGI in the assay with MALME-3M melanoma, in the assay with NCI-H23 lung, in the assay on NCI-H522 lung and in the assay with SNB-19 CNS was greater than 10 µM throughout.

As to `CC(C)=CC[C@]12CCN(C)[C@H]1N(S(=O)(=O)c1ccccc1)c1ccccc12`, the TGI in the assay with SF-295 CNS is greater than 100 µM; in the assay with PC-3 prostate, 98.6 µM; in the assay on MDA-N, greater than 100 µM; with HL-60(TB) leukemia it was greater than 74.6 µM; in the assay on MCF7 breast, greater than 72.9 µM; in the assay with MDA-MB-231 breast, greater than 100 µM. For the same molecule, the TGI in the assay on MALME-3M melanoma is greater than 100 µM; with NCI-H23 lung, greater than 100 µM; with NCI-H522 lung, 41.8 µM; in the assay with SNB-19 CNS, greater than 100 µM.

Consider `O=C(SCc1cccc2ccccc12)c1ccc(Cl)cc1`, for which the TGI in the assay on SF-295 CNS, with PC-3 prostate, in the assay with MDA-N, in the assay on HL-60(TB) leukemia, in the assay on MCF7 breast and with MDA-MB-231 breast was greater than 100 µM in each case. For the same molecule, the TGI in the assay on MALME-3M melanoma, with NCI-H23 lung, in the assay with NCI-H522 lung and in the assay on SNB-19 CNS was greater than 100 µM throughout.

On to `CC(C)(NC(=O)OCc1ccccc1)C(=O)OC(=O)C(C)(C)NC(=O)OCc1ccccc1`, for which the TGI in the assay on SF-295 CNS, with PC-3 prostate, with MDA-N, with MCF7 breast, with MDA-MB-231 breast and in the assay with MALME-3M melanoma was greater than 100 µM each time. Also, the TGI with NCI-H23 lung, in the assay on NCI-H522 lung and in the assay on SNB-19 CNS was greater than 100 µM throughout.

For the molecule `CNc1ncnc2c1nc(NC1CCCC1)n2C1OC(CO)C(O)C1O` (configuration not stated), the TGI in the assay with SF-295 CNS, with PC-3 prostate, in the assay on MDA-N, in the assay with MCF7 breast, with MDA-MB-231 breast and in the assay with MALME-3M melanoma was greater than 100 µM each time. The TGI in the assay on NCI-H23 lung, in the assay with NCI-H522 lung and with SNB-19 CNS was greater than 100 µM in each case.

As to `C#CC(O)/C=C/CCCCCCC#CC/C=C\CC#CCCCCCCCCC(O)C#C` (configuration not stated), the TGI amounted to 30.3 µM in the assay on SF-295 CNS; 31.6 µM with PC-3 prostate; 5.48 µM with MDA-N; 3.71 µM in the assay on HL-60(TB) leukemia; 39.5 µM with MCF7 breast; 11.8 µM in the assay with MDA-MB-231 breast. Also, the TGI is 4.41 µM in the assay with MALME-3M melanoma, 4.17 µM with NCI-H23 lung, 0.526 µM in the assay with NCI-H522 lung and 37.5 µM in the assay on SNB-19 CNS.

In the case of `Cc1nc2sc(C(=O)c3ccc(Cl)cc3)c(N)c2c(-c2ccccc2Cl)c1C(=O)Nc1ccccc1`, the TGI with SF-295 CNS was 47.9 µM; with PC-3 prostate, 47 µM; in the assay with MDA-N, 29.5 µM; in the assay on HL-60(TB) leukemia, greater than 86.5 µM; in the assay on MCF7 breast, 53.8 µM; in the assay on MDA-MB-231 breast, 34.6 µM. Further, the TGI in the assay with MALME-3M melanoma was 29.2 µM; with NCI-H23 lung it was 38.9 µM; in the assay on NCI-H522 lung, 25.1 µM; with SNB-19 CNS, 71.2 µM.

In the case of `O=c1[nH]c(NCc2ccc(Cl)cc2)nc2nc[nH]c12`, the TGI in the assay with SF-295 CNS, in the assay on PC-3 prostate, in the assay with MDA-N, in the assay on MCF7 breast, in the assay on MDA-MB-231 breast and in the assay with MALME-3M melanoma was greater than 100 µM each time. The TGI with NCI-H23 lung, in the assay on NCI-H522 lung and in the assay on SNB-19 CNS was greater than 100 µM throughout.

As for `CC(C)=CC(=O)c1[nH]c2ccccc2c1CC(=O)NCCc1cncn1C`, the TGI in the assay on SF-295 CNS, in the assay on PC-3 prostate, with MDA-N, in the assay on MCF7 breast, in the assay with MDA-MB-231 breast and in the assay on MALME-3M melanoma was greater than 100 µM each time. Further, the TGI with NCI-H23 lung was greater than 100 µM; in the assay on NCI-H522 lung it was 84.6 µM; in the assay on SNB-19 CNS, greater than 100 µM.

Consider `O=C(O)c1nc2ccc(C(F)(F)F)cc2nc1Nc1ccc(F)cc1`, for which the TGI in the assay with SF-295 CNS was determined as 37.7 µM; with PC-3 prostate, 48 µM; with MDA-N, 79.6 µM; with HL-60(TB) leukemia, 33.3 µM; in the assay on MCF7 breast it was 61.5 µM; in the assay with MDA-MB-231 breast, 65.6 µM. For the same molecule, the figures for the TGI in the assay with MALME-3M melanoma, in the assay with NCI-H23 lung and with NCI-H522 lung were 38.3 µM, 37.6 µM and 24.7 µM, respectively.

As for `C/C(=N\Nc1nc2ccccc2s1)c1cc2ccccc2cn1`, the TGI with SF-295 CNS was 19.3 µM; in the assay with PC-3 prostate, greater than 100 µM; in the assay with MDA-N it was greater than 100 µM; in the assay on MCF7 breast it was greater than 100 µM; in the assay with MDA-MB-231 breast, 33.9 µM; in the assay with MALME-3M melanoma, greater than 100 µM. In addition, the TGI in the assay on NCI-H23 lung is 18.1 µM; with NCI-H522 lung, 26 µM; with SNB-19 CNS, greater than 100 µM.

As for `CC1(C)OC2OC(C(COS(=O)(=O)C(F)(F)F)N=[N+]=[N-])C(OC(=O)c3ccccc3)C2O1` (configuration not stated), the TGI in the assay on SF-295 CNS, in the assay on PC-3 prostate, with MDA-N, in the assay with HL-60(TB) leukemia, in the assay with MCF7 breast and with MDA-MB-231 breast was greater than 100 µM throughout. The TGI in the assay with MALME-3M melanoma, in the assay on NCI-H23 lung and in the assay with SNB-19 CNS was greater than 100 µM each time.

`CCCCOC(=O)C1CC[C@H]2[C@@H]3CCc4cc(OC(=O)c5cccc6c(=O)c7ccccc7[nH]c56)ccc4[C@H]3CC[C@]12C` (some centres not stated): the TGI with SF-295 CNS came to 16.1 µM; in the assay with PC-3 prostate, 15.6 µM; in the assay with MDA-N it was 14.5 µM; in the assay on HL-60(TB) leukemia it was 13.6 µM; in the assay with MCF7 breast, 25.8 µM; in the assay with MDA-MB-231 breast, 14.5 µM. The TGI in the assay on MALME-3M melanoma was 18.7 µM; in the assay with NCI-H23 lung, 16.6 µM; in the assay on NCI-H522 lung, 16.9 µM.
